# Measurements: patent US9969752B2, “Inhibitors of HIF prolyl hydroxylase” (MERCK SHARP & DOHME CORP., priority 2014, dated 2018)
# Target: T1, Human HIF-PHD2 (Homo sapiens, UniProt Q9GZT9)
# T1 construct: FLAG-tagged full length PHD2 expressed in and purified from baculovirus-infected Sf9 cells; FLAG; made in house; host or cells: baculovirus-infected Sf9 cells
# Experiment: Inhibition of the hydroxylation of a HIF peptide by PHD2 (time resolved fluorescence, 384-well)
# Format: biochemical
# Conditions: FLAG-tagged full length PHD2; 0.2 μM 2-oxoglutarate, 0.5 μM HIF-1α peptide; 45 minutes at room temperature; read-out: Human HIF-PHD2 IC50
# Experimental: To each well of a 384-well plate, 1 μL of test compounds in DMSO (final concentration ranging from 0.3 nM to 10 uM) were added into 20 μl of assay buffer (50 mM Tris pH 7.4/0.01% Tween-20/0.1 mg/ml bovine serum albumin/10 μM ferrous sulfate/1 mM sodium ascorbate/20 μg/ml catalase) containing 0.15 μg/ml FLAG-tagged full length PHD2 expressed in and purified from baculovirus-infected Sf9 cells. After a 5 min preincubation at room temperature, the enzymatic reactions were initiated by the addition of 4 μL of substrates {final concentrations of 0.2 μM 2-oxoglutarate and 0.5 μM HIF-1α peptide biotinyl-[…] […] After incubation for 45 minutes at room temperature, the reactions were terminated by the addition of a 25 μL quench/detection mix to a final concentration of 1 mM ortho-phenanthroline, 0.1 mM EDTA, 0.5 nM anti-(His)6 LANCE reagent (Perkin-Elmer Life Sciences), 100 nM AF647-labeled streptavidin (Invitrogen), and 2 μg/ml (His)6-VHL complex {S. Tan Protein Expr. Purif.
# T1 sequence (Q9GZT9 whole entry): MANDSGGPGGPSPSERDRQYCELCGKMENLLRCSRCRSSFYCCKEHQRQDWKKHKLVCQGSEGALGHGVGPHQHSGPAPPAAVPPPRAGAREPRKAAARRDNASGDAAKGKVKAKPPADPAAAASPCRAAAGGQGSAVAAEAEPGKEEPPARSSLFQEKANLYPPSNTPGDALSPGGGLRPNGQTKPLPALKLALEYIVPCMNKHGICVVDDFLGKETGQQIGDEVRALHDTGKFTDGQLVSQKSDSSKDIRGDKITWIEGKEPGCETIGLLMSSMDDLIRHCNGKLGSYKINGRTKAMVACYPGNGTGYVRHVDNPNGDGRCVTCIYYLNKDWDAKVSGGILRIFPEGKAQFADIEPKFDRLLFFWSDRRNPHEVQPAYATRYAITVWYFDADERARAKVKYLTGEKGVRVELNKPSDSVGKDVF
row,Structure (SMILES),IC50 [nM]
1,"N#Cc1ccc2c(O)c(C(=O)NCC(=O)O)c(=O)n3c2c1NC(c1ccc(C(F)(F)F)cc1)C3 (centres unmarked) [Example 114, 2-(10-Cyano-7-hydroxy-5-oxo-2-(4-(trifluoromethyl)phenyl)-1,2,3,5-tetrahydropyrido[1,2,3-de]quinoxaline-6-carboxamido)acetic acid]",1
2,"Cc1ccc2c3c1c(O)c(C(=O)NCC(=O)O)c(=O)n3C(Cc1ccc(C(F)(F)F)cc1)CO2 (centres unmarked) [Example 30, 2-(7-Hydroxy-8-methyl-5-oxo-3-(4-(trifluoromethyl)benzyl)-3,5-dihydro-2H-[1,4]oxazino[2,3,4-ij]quinoline-6-carboxamido)acetic acid]",39
3,"O=C(O)CNC(=O)c1c(O)c2c(F)ccc3c2n(c1=O)CC(c1ccc(C(F)(F)F)cc1)O3 (single isomer, unassigned) [Example 68, 2-(8-Fluoro-7-hydroxy-5-oxo-2-(4-(trifluoromethyl)phenyl)-3,5-dihydro-2H-[1,4]oxazino[2,3,4-ij]quinoline-6-carboxamido)acetic acid]",4.9
4,"CS(=O)(=O)c1cc2c3c(c1)c(O)c(C(=O)NCC(=O)O)c(=O)n3C(Cc1ccc(C(F)(F)F)cc1)CO2 (centres unmarked) [Example 6, 2-(7-Hydroxy-9-(methylsulfonyl)-5-oxo-3-(4-(trifluoromethyl)benzyl)-3,5-dihydro-2H-[1,4]oxazino[2,3,4-ij]quinoline-6-carboxamido)acetic acid]",1.7
5,"O=C(O)CNC(=O)c1c(O)c2cccc3c2n(c1=O)C(c1cncs1)CN3 (centres unmarked) [Example 111, 2-(7-Hydroxy-5-oxo-3-(thiazol-5-yl)-1,2,3,5-tetrahydropyrido[1,2,3-de]quinoxaline-6-carboxamido)acetic acid]",15
6,"N#Cc1cc2c3c(c1)c(O)c(C(=O)NCC(=O)O)c(=O)n3C(c1ccc(C(F)(F)F)cc1)CS2 (centres unmarked) [Example 102, 2-(9-Cyano-7-hydroxy-5-oxo-3-(4-(trifluoromethyl)phenyl)-3,5-dihydro-2H-[1,4]thiazino[2,3,4-ij]quinoline-6-carboxamido)acetic acid]",5.8
7,"O=C(O)CNC(=O)c1c(O)c2cc(Br)cc3c2n(c1=O)CC(c1ccc(Br)cc1)O3 (centres unmarked) [Example 53, 2-(9-Bromo-2-(4-bromophenyl)-7-hydroxy-5-oxo-3,5-dihydro-2H-[1,4]oxazino[2,3,4-ij]quinoline-6-carboxamido)acetic acid]",3.5
8,"N#Cc1ccc2c(O)c(C(=O)NCC(=O)O)c(=O)n3c2c1NC(c1cncs1)C3 (centres unmarked) [Example 109, 2-(10-Cyano-7-hydroxy-5-oxo-2-(thiazol-5-yl)-1,2,3,5-tetrahydropyrido[1,2,3-de]quinoxaline-6-carboxamido)acetic acid]",4.2
9,"O=C(O)CNC(=O)c1c(O)c2cccc3c2n(c1=O)C(c1ccc(Cl)cc1)CO3 (centres unmarked) [Example 157, 2-(7-Hydroxy-5-oxo-3-(4-chlorophenyl)-3,5-dihydro-2H-[1,4]oxazino[2,3,4-ij]quinoline-6-carboxamido)acetic acid]",25
10,"O=C(O)CNC(=O)c1c(O)c2cc(OC(F)(F)F)cc3c2n(c1=O)CC(c1ccc(C(F)(F)F)cc1)O3 (centres unmarked) [Example 124, 2-(7-Hydroxy-5-oxo-9-(trifluoromethoxy)-2-(4-(trifluoromethyl)phenyl)-3,5-dihydro-2H-[1,4]oxazino[2,3,4-ij]quinoline-6-carboxamido)acetic acid]",9.6
11,"O=C(O)CNC(=O)c1c(O)c2cccc3c2n(c1=O)CC(c1cncs1)C3 (single isomer, unassigned) [Example 50b, 2-(1-Hydroxy-3-oxo-6-(thiazol-5-yl)-3,5,6,7-tetrahydropyrido[3,2,1-ij]quinoline-2-carboxamido)acetic acid]",8.3
12,"CS(=O)(=O)c1ccc2c3c1c(O)c(C(=O)NCC(=O)O)c(=O)n3C(Cc1ccc(C(F)(F)F)cc1)CO2 (centres unmarked) [Example 28, 2-(7-Hydroxy-8-(methylsulfonyl)-5-oxo-3-(4-(trifluoromethyl)benzyl)-3,5-dihydro-2H-[1,4]oxazino[2,3,4-ij]quinoline-6-carboxamido)acetic acid]",42

# Continued, values first:
row,IC50 [nM],Structure (SMILES)
1,29,"CN1c2cccc3c(O)c(C(=O)NCC(=O)O)c(=O)n(c23)CC1c1cncs1 (centres unmarked) [Example 112, 2-(7-Hydroxy-1-methyl-5-oxo-2-(thiazol-5-yl)-1,2,3,5-tetrahydropyrido[1,2,3-de]quinoxaline-6-carboxamido)acetic acid]"
2,0.839,"N#Cc1cc2c3c(c1)c(O)c(C(=O)NCC(=O)O)c(=O)n3CC(c1ccc(C(F)(F)F)cc1)[S+]2[O-] (centres unmarked) [Example 91, 2-(9-Cyano-7-hydroxy-1-oxido-5-oxo-2-(4-(trifluoromethyl)phenyl)-3,5-dihydro-2H-[1,4]thiazino[2,3,4-ij]quinoline-6-carboxamido)acetic acid]"
3,5.7,"O=C(O)CNC(=O)c1c(O)c2ccc(Br)c3c2n(c1=O)C(Cc1ccc(C(F)(F)F)cc1)CO3 (centres unmarked) [Example 27, 2-(10-Bromo-7-hydroxy-5-oxo-3-(4-(trifluoromethyl)benzyl)-3,5-dihydro-2H-[1,4]oxazino[2,3,4-ij]quinoline-6-carboxamido)acetic acid]"
4,30,"CC(O)(CO)c1cc2c3c(c1)c(O)c(C(=O)NCC(=O)O)c(=O)n3C(Cc1ccc(C(F)(F)F)cc1)CO2 (centres unmarked) [Example 8, 2-(9-(1,2-Dihydroxypropan-2-yl)-7-hydroxy-5-oxo-3-(4-(trifluoromethyl)benzyl)-3,5-dihydro-2H-[1,4]oxazino[2,3,4-ij]quinoline-6-carboxamido)acetic acid]"
5,5.4,"Cc1ccc2c(O)c(C(=O)NCC(=O)O)c(=O)n3c2c1OC(c1ccc(C(F)(F)F)cc1)C3 (centres unmarked) [Example 25, 2-(7-Hydroxy-10-methyl-5-oxo-2-(4-(trifluoromethyl)phenyl)-3,5-dihydro-2H-[1,4]oxazino[2,3,4-ij]quinoline-6-carboxamido)acetic acid]"
6,10,"O=C(O)CNC(=O)c1c(O)c2cc(Cl)cc3c2n(c1=O)CC(c1ccc(C(F)(F)F)cc1)O3 (single isomer, unassigned) [Example 74, 2-(9-Chloro-7-hydroxy-5-oxo-2-(4-(trifluoromethyl)phenyl)-3,5-dihydro-2H-[1,4]oxazino[2,3,4-ij]quinoline-6-carboxamido)acetic acid]"

# Same assay, conditions: FLAG-tagged full length PHD2; 0.2 μM 2-oxoglutarate, 0.5 μM HIF-1α peptide; 45 minutes at room temperature; read-out: MS m/z (M + 1)+ and human HIF-PHD2 IC50
row,Structure (SMILES),IC50 [nM]
1,"NC(=O)c1cccc(-c2ccc3c(O)c(C(=O)NCC(=O)O)c(=O)n4c3c2OCC4c2ccc(C(F)(F)F)cc2)c1 (centres unmarked) [Example 139, N-({10-(3-carbamoylphenyl)-7-hydroxy-5-oxo-3-[4-(trifluoromethyl)phenyl]-2,3-dihydro-5H-[1,4]oxazino[2,3,4-ij]quinolin-6-yl}carbonyl)glycine]",14
2,"COc1cncc(-c2ccc3c(O)c(C(=O)NCC(=O)O)c(=O)n4c3c2OCC4c2ccc(C(F)(F)F)cc2)c1 (centres unmarked) [Example 135, N-({7-hydroxy-10-(5-methoxypyridin-3-yl)-5-oxo-3-[4-(trifluoromethyl)phenyl]-2,3-dihydro-5H-[1,4]oxazino[2,3,4-ij]quinolin-6-yl}carbonyl)glycine]",15
3,"O=C(O)CNC(=O)c1c(O)c2c(OC(F)(F)F)ccc3c2n(c1=O)CC(c1ccc(C(F)(F)F)cc1)O3 (single isomer, unassigned) [Example 87, 2-(7-hydroxy-5-oxo-8-(trifluoromethoxy)-2-(4-(trifluoromethyl)phenyl)-3,5-dihydro-2H-[1,4]oxazino[2,3,4-ij]quinoline-6-carboxamido)acetic acid]",17

# Next, values leading:
row,IC50 [nM],Structure (SMILES)
1,3.8,"O=C(O)CNC(=O)c1c(O)c2ccc(F)c3c2n(c1=O)C(c1cncs1)CO3 (centres unmarked) [Example 174, 2-(10-fluoro-7-hydroxy-5-oxo-3-(thiazol-5-yl)-3,5-dihydro-2H-[1,4]oxazino[2,3,4-ij]quinoline-6-carboxamido)acetic acid]"
2,4.7,"O=C(O)CNC(=O)c1c(O)c2cccc3c2n(c1=O)C(c1ccc(-c2ccc(C(F)(F)F)nc2)cc1)CO3 (centres unmarked) [Example 143, N-[(7-hydroxy-5-oxo-3-{4-[6-(trifluoromethyl)pyridin-3-yl]phenyl}-2,3-dihydro-5H-[1,4]oxazino[2,3,4-ij]quinolin-6-yl)carbonyl]glycine]"
3,10,"Cc1ccc(-c2ccc(C3COc4cccc5c(O)c(C(=O)NCC(=O)O)c(=O)n3c45)cc2)cc1 (centres unmarked) [Example 144, N-{[7-hydroxy-3-(4′-methylbiphenyl-4-yl)-5-oxo-2,3-dihydro-5H-[1,4]oxazino[2,3,4-ij]quinolin-6-yl]carbonyl}glycine]"
4,1,"O=C(O)CNC(=O)c1c(O)c2cccc3c2n(c1=O)CC(c1ccc(C(F)(F)F)cc1)[S+]3[O-] (centres unmarked) [Example 61, 2-(7-hydroxy-1-oxido-5-oxo-2-(4-(trifluoromethyl)phenyl)-3,5-dihydro-2H-[1,4]thiazino[2,3,4-ij]quinoline-6-carboxamido)acetic acid]"
5,34,"N#Cc1ccc(C2Cn3c(=O)c(C(=O)NCC(=O)O)c(O)c4c(OC(F)(F)F)ccc(c43)O2)cc1 (single isomer, unassigned) [Example 89, 2-(2-(4-cyanophenyl)-7-hydroxy-5-oxo-8-(trifluoromethoxy)-3,5-dihydro-2H-[1,4]oxazino[2,3,4-ij]quinoline-6-carboxamido)acetic acid]"
